# Reference: patent US12325688B2, “Gingerenone A prodrugs as sensotherapeutics and methods of use” (The U.S.A., as Represented by the Secretary, Department of …, priority 2022, dated 2025)
# Entries after “also recorded” stand apart in the source; their conditions may differ.
# Assays:
# Format in all cases: cell-based, human
# [1] = test system: IR-induced senescent WI-38 fibroblasts; experiment: MTT cell viability assay, senescent cells; settings: for senolytic activity (selective decrease of viability of senescent cells): components at 100 μM, 6-shogaol 3.6 μM, 8-shogaol 33 μM, 6-gingerol 20 μM; for senescent cell viability: D+Q 250 nM dasatinib + 10 μM quercetin, gingerenone A 20 μM, 6-shogaol 72.4 nM
# Method: Cell culture and treatments: WI-38 human diploid fibroblasts (HDFs) were cultured in Dulbecco's modified Eagle's medium (DMEM) supplemented with 10% heat-inactivated fetal bovine serum (FBS), penicillin and streptomycin, and non-essential amino acids at 37° C. in a 5% CO2 incubator. HDFs were rendered senescent by exposure to 10 Gy of ionizing radiation (IR) and then cultured for an additional ten days. Proliferating and senescent WI-38 cells were seeded in triplicate overnight at 2×10^5 cells/well (in 6 well plates) to achieve ˜-60% confluence by the next day. Cells were then treated with the extracts for times indicated. […]
# MTT cell viability: The MTT assay (BioVision Milpitas, CA) was carried out following the manufacturer's protocol. Briefly, the media was gently removed from each well and 50 μl of serum-free medium+50 μl of Solution A were added to each well. The plates were incubated at 37° C. for MTT reduction into formazan for 3 h. Next, 150 μl Solution B was added to each well and the plate was covered with foil and shaken at 600 rpm for 15 min. The absorbance was measured at 590 nm using Enspire, Perkin Elmer Multimode plate reader. […]
# WI-38 fibroblasts were rendered senescent by exposure to ionizing radiation (IR, 10 Gy) and cultured for an additional 10 days. […] Data represent the means and standard error from three biological replicates. The major components of ginger extract, namely 6-gingerol, 8-gingerol, 10-gingerol, 6-shogaol, 8-shogaol, gingerenone A, and zingerone, were screened for their ability to selectively decrease cell viability of senescent cells using the MTT assay (FIG. 10A).
# [2] = test system: proliferating WI-38 fibroblasts; experiment: MTT cell viability assay, proliferating cells; settings: 48 h; D+Q 250 nM dasatinib + 10 μM quercetin, gingerenone A 20 μM, 6-shogaol 72.4 nM
# Method: Cell culture and treatments: WI-38 human diploid fibroblasts (HDFs) were cultured in Dulbecco's modified Eagle's medium (DMEM) supplemented with 10% heat-inactivated fetal bovine serum (FBS), penicillin and streptomycin, and non-essential amino acids at 37° C. in a 5% CO2 incubator. HDFs were rendered senescent by exposure to 10 Gy of ionizing radiation (IR) and then cultured for an additional ten days. Proliferating and senescent WI-38 cells were seeded in triplicate overnight at 2×10^5 cells/well (in 6 well plates) to achieve ˜-60% confluence by the next day. Cells were then treated with the extracts for times indicated.
# In 24-well plates, cells were treated with multiple dilutions (1:200 and 1:500) of Harpagophytum procumbens (Devil's Claw) (herb to menstruum ratio, 1:3), Uncaria tomentosa (Cat's Claw) (herb to menstruum ratio, 1:3), Zingiber officinale Rosc. […]
# MTT cell viability: The MTT assay (BioVision Milpitas, CA) was carried out following the manufacturer's protocol. […] The absorbance was measured at 590 nm using Enspire, Perkin Elmer Multimode plate reader.
# Four plant extracts were screened for senolytic activity, including extracts from Harpagophytum procumbens (Devil's Claw), Uncaria tomentosa (Cat's Claw), Zingiber officinale Rosc. […] In FIG. 8B, the impact on ginger extract on proliferating and senescent cells on cell survival was assessed by the MTT cell viability assay.
# [3] = test system: senescent WI-38 fibroblasts; experiment: Secreted SASP cytokines and chemokines (ELISA, multiplex, V-PLEX)
# Method: Secreted protein analysis—ELISA, Luminex Multiplex and V-PLEX: Media was collected at the earliest timepoint (24 h after treatments) to avoid cell death that could interfere with the assay. The media was centrifuged at 1000×g for 5 min to remove debris. The secretion of IL-6 was measured by the Quantikine ELISA Kit (R&D systems) and the expression of pro-inflammatory cytokines and chemokines [IL-6, TNFα, CCL2 (MCP-1), IL-8, IFNβ] was also assessed by multiplex assays (customized Luminex plate, R&D) according to the manufacturer's instructions. The V-PLEX Plus Proinflammatory Panel 1 Human Kit and the Chemokine Panel 1 preparation and detection were carried out following the manufacturer's protocol (Mesoscale Diagnostics) using >80% confluency of proliferating or senescent cells on 24-well plates. Briefly, different concentrations of standards and samples were added to the plates, and they were incubated for 2 h on a microplate shaker. The plates were washed, and the corresponding detection antibody mixture was added to each well and incubated for 1 h with shaking. The plates were washed twice then Read buffer was added to each well. The plates were read on the MESO Quickplex SQ 120 (MSD, Rockville, MD) and protein concentrations were determined using MSD Discovery workbench 4.0. The effects of gingerenone A, 6-shogaol and D+Q on cytokines and chemokines that are known to be part of the senescence-associated secretory phenotype (SASP) were tested. WI-38 fibroblasts were rendered senescent by exposure to ionizing radiation (IR, 10 Gy) and cultured for an additional 10 days. Cells were then treated with gingerenone A (20 μM) and 6-shogaol (72.4 nM) and incubated for 24 h. CCL-2 (MCP-1) and IL-10 were measured using the Bio-plex (Multiplex); IL6 was measured using Quantikine IL-6 (R&D) (FIG. 12A). Data were normalized to cell number/total protein content. Data in graphs represent the means and standard error from three biological replicates. […] Ratios of cleaved pro-caspase 3 to total caspase 3, normalized to ACTB levels, are shown as relative to control proliferating cells. Cytokines (FIG. 13A) and chemokines (FIG. 13B) were measured using the V-plex panel (MSD) after treatment for 24 h with the indicated drugs. Relative secretion was measured as pg/ml vs control normalized on TE. Data in the graphs represent the means and standard error from three biological replicates.
# [4] = test system: proliferating and senescent WI-38 fibroblasts; experiment: Western blot of apoptotic pathway proteins; settings: 48 h; for expression of anti-apoptotic protein Bcl-XL / levels of pro-apoptotic protein cleaved caspase-3: senescent cells
# Method: Protein analysis: Cells were lysed in RIPA lysis buffer (Pierce, ThermoFisher) containing protease and phosphatase inhibitors (Roche) and incubated on ice for 10 min. The lysates were then sonicated for 5 min and centrifuged for 10 min at 4° C. to remove the insoluble fraction. The remaining supernatant was the whole-cell lysate. Lysates were separated by SDS-polyacrylamide gel electrophoresis (SDS-PAGE) and transferred onto nitrocellulose membranes (Biorad). Incubations with primary antibodies recognizing p21, p53, Beta-Actin (ACTB) (Santa Cruz Biotechnology), as well as caspase-3 (Abcam) and Bcl-XL (Cell Signaling) were followed by incubations with the appropriate secondary antibodies conjugated with horseradish peroxidase (GE Healthcare). Signals were developed using Enhanced Chemiluminescence (ECL) and acquired by using the ChemiDoc MP Imaging System (BioRad).
# The effects of gingerenone A, 6-shogaol and D+Q on cytokines and chemokines that are known to be part of the senescence-associated secretory phenotype (SASP) were tested. WI-38 fibroblasts were rendered senescent by exposure to ionizing radiation (IR, 10 Gy) and cultured for an additional 10 days. Cells were then treated with gingerenone A (20 μM) and 6-shogaol (72.4 nM) and incubated for 24 h. CCL-2 (MCP-1) and IL-10 were measured using the Bio-plex (Multiplex); IL6 was measured using Quantikine IL-6 (R&D) (FIG. 12A). Data were normalized to cell number/total protein content. Data in graphs represent the means and standard error from three biological replicates. […] Ratios of cleaved pro-caspase 3 to total caspase 3, normalized to ACTB levels, are shown as relative to control proliferating cells. Cytokines (FIG. 13A) and chemokines (FIG. 13B) were measured using the V-plex panel (MSD) after treatment for 24 h with the indicated drugs. Relative secretion was measured as pg/ml vs control normalized on TE. Data in the graphs represent the means and standard error from three biological replicates.
# To determine whether gingerenone A and 6-shogaol might influence the apoptotic pathway, their effect on the levels of cleaved caspase-3 (pro-apoptotic marker), and Bcl-XL (anti-apoptotic protein) (FIG. 12B) was tested. […] However, D+Q, gingerenone A, and 6-shogaol all reduced the expression of the anti-apoptotic protein Bcl-XL in senescent cells (FIG. 12B, right).
structure (smiles),measurement,setting,value
CCCCCCCCC[C@H](O)CC(=O)CCc1ccc(O)c(OC)c1 [10-gingerol],senolytic activity (selective decrease of viability of senescent cells),[1]; 72 h,only 6-shogaol and gingerenone A displayed senolytic activity
COc1cc(CCC(C)=O)ccc1O [zingerone],senolytic activity (selective decrease of viability of senescent cells),[1]; 72 h,only 6-shogaol and gingerenone A displayed senolytic activity
CCCCCCC/C=C/C(=O)CCc1ccc(O)c(OC)c1 [8-shogaol],senolytic activity (selective decrease of viability of senescent cells),[1]; 72 h,only 6-shogaol and gingerenone A displayed senolytic activity
CCCCCCC[C@H](O)CC(=O)CCc1ccc(O)c(OC)c1 [8-gingerol],senolytic activity (selective decrease of viability of senescent cells),[1]; 72 h,only 6-shogaol and gingerenone A displayed senolytic activity
CCCCC[C@H](O)CC(=O)CCc1ccc(O)c(OC)c1 [6-gingerol],senolytic activity (selective decrease of viability of senescent cells),[1]; 72 h,only 6-shogaol and gingerenone A displayed senolytic activity
"COc1cc(CC/C=C/C(=O)CCc2ccc(O)c(OC)c2)ccc1O [gingerenone A, Gingerenone A]",senescent cell viability relative to proliferating cells,"[1]; 20 μM, 48 h",significant decrease; also recorded: significantly decreased
same,selectivity for senescent over proliferating cells,"[1]; 48 h, 20 μM, compared to D+Q",higher selectivity compared to D+Q
same,senescent cell viability,[1]; 48 h,significantly decreased
same,senolytic activity (selective decrease of viability of senescent cells),[1]; 72 h,displayed senolytic activity
same,IC50,"[1]; Homo sapiens, WI-38, light or radiation study, dose response 2.5-100 μM, 72 h, 10 days post-irradiation",19.6 ± 2.1 µM
same,effect on proliferating (non-irradiated) cells,[2],did not show any significant effect
same,level of anti-inflammatory cytokine IL-13,"[3]; 24 h, FIG. 13A",increased
same,level of pro-inflammatory cytokine IL-8,"[3]; 24 h, FIG. 13A",increased
same,level of IL-10,"[3]; 24 h, V-plex, FIG. 13A",unchanged
same,"level of IL-10, listed with IL-8 as pro-inflammatory cytokine","[3]; 24 h, V-plex, FIG. 13A",increased
same,secreted level of interferon γ-induced protein 10 (IP-10),"[3]; 24 h, V-plex, FIG. 13B",reduced
same,level of anti-inflammatory cytokine IL-10,"[3]; 24 h, multiplex ELISA (Bio-plex), FIG. 12A",increase
same,secreted level of CCL2 (MCP-1),"[3]; 24 h, gingerenone A 20 μM, D+Q",reduced
same,secreted level of IL-6,"[3]; 24 h, gingerenone A 20 μM, D+Q",reduced
same,secretion of pro-inflammatory SASP cytokine IL-1B,[3]; senescent cells,increase
same,p53 levels,[4]; proliferating and senescent cells,did not increase
same,expression of anti-apoptotic protein Bcl-XL,[4],reduced
same,levels of pro-apoptotic protein cleaved caspase-3,[4],increase
CCCCC/C=C/C(=O)CCc1ccc(O)c(OC)c1 [6-shogaol],senescent cell viability,[1]; 48 h,moderate degree of cell death
same,senolytic activity (selective decrease of viability of senescent cells),[1]; 72 h,displayed senolytic activity
same,effect on proliferating (non-irradiated) cells,[2],significant increase
same,changes in any of the cytokines and chemokines measured,"[3]; 24 h, 72.4 nM",did not induce major changes
same,expression of anti-apoptotic protein Bcl-XL,[4],reduced
same,levels of pro-apoptotic protein cleaved caspase-3,[4],increase
